In US20050143392A1, “Chrysogenazine obtained from fungus Penicillium chrysogenum having antibacterial activity” (Council of Scientific & Industrial Research, priority 2003, published 2005):

System: Vibrio cholerae MCM B-322
Assay: Antibacterial activity, simple disc diffusion (agar diffusion) technique
Experimental: In addition, standard discs of penicillin (10 units/disc), amphicillin (10 mcg/disc) and streptomycin (10 mcg/disc) were used to compare the sensitivity.
Antibacterial activity was determined using a Gram negative bacterial strain, Vibrio cholerae, in a agar diffusion assay, essentially as described by Chabbert, (1963) and Rinehart et.al.,(1981). […] Following an appropriate incubation interval, microbial growth inhibition was visualized and quantified by measuring the clear zone around each disc (Plate 1.). Comparison of this was made with the standard antibiotics (penicillin, amphicillin, and streptomycin).

SMILES	antibacterial activity against human pathogen Vibrio cholerae (in words) (disc diffusion, 5-30 mcg/disc)	zone of inhibition at 10 µg/disc (Vibrio cholerae, MCMB322) [mm]
CC(C)=CCc1[nH]c2ccccc2c1C=C1NC(=O)C(C)NC1=O (centres unmarked) [chrysogenazine, 3,1′-didehydro-3[2″(3′″,3′″-dimethyl-prop-2-enyl)-3″-indolylmethylene]-6-methylpiperazine-2,5-dione]	active	–
[H]/N=C(/N)N[C@H]1[C@H](O)[C@@H](O)[C@H](O[C@@H]2O[C@@H](C)[C@](O)(C=O)[C@H]2O[C@@H]2O[C@@H](CO)[C@H](O)[C@@H](O)[C@@H]2NC)[C@@H](N/C(N)=N\[H])[C@@H]1O [streptomycin]	–	4 to 5
